Assay results reported in patent publication US5089516A, “1-phenyl-3,5-pyrazolidinedione hydroxystyrene compounds which have tyrosine kinase inhibiting activity” (Kanegafuchi Kagaku Kogyo Kabushiki Kaisha, priority 1987, dated 1992).

How the values were obtained:
[1] = test system: antigen-induced anaphylactic shock death; assay: Protecting effect against antigen-induced anaphylactic shock death in actively sensitized guinea pigs; format: in vivo, male guinea pigs; details: Cavia porcellus, 1.5 h, oral, 30 minutes before antigen inhalation
Experimental: (2) Protecting effect against antigen-induced anaphylactic shock death in actively sensitized guinea pigs
Anaphylactic shock death caused by inhalation of antigen was observed according to John P. Devlin Pulmonary and Antiallergic Drugs, John Wiley & Sons, (1985)] employing actively sensitized guinea pigs.
Each 100 mg/kg of body weight ovalbumin dissolved in physiological saline was injected into gluteus and into peritoneal cavity of male guinea pigs weighing 250 to 350 g. Three days later, the animals were further injected intraperitoneally with ovalbumin (100 mg/kg body weight) to conduct booster. Those animals were employed for testing 3 to 4 weeks after the sensitization.
In each group, 4 or more actively sensitized guinea pigs were pretreated by subcutaneously injecting pyrilamine (1 mg/kg body weight) 30 minutes before antigen inhalation to suppress histamine-dependent response and propranolol (1 mg/kg body weight) to enhance the response induced by other than histamine 10 minutes before the antigen inhalation.
The animal was placed in a desiccator with a capacity of about […] and 0.5% aqueous solution of ovalbumin in the state of aerosol was inhaled with ultrasonic type nebulizer for five minutes. Anaphylactic shock death was observed and the animals survived for 90 minutes or more after antigen inhalation were estimated to be protected. All the animals of the control group died due to anaphylactic shock. The compounds of the present invention and therapeutic antiasthmatic agent (tranilast, theophylline) were administered orally 30 minutes before the antigen inhalation.

5-lipoxygenase = target: T1, 5-lipoxygenase (Cavia porcellus, UniProt A0A286X958); assay: 5-Lipoxygenase inhibiting activity (5-HETE formation, cytosol of peritoneal exudate cells); format: biochemical, Hartley guinea pigs; details: 10 μM in the reaction mixture; read-out: Inhibition rate (5-lipoxygenase)
T1 construct: The cytosol fraction was used as an enzyme solution; from tissue; host or cells: peritoneal exudate cells of casein-injected Hartley guinea pigs, 105,000×g cytosol
T1 sequence (A0A286X958 1-674): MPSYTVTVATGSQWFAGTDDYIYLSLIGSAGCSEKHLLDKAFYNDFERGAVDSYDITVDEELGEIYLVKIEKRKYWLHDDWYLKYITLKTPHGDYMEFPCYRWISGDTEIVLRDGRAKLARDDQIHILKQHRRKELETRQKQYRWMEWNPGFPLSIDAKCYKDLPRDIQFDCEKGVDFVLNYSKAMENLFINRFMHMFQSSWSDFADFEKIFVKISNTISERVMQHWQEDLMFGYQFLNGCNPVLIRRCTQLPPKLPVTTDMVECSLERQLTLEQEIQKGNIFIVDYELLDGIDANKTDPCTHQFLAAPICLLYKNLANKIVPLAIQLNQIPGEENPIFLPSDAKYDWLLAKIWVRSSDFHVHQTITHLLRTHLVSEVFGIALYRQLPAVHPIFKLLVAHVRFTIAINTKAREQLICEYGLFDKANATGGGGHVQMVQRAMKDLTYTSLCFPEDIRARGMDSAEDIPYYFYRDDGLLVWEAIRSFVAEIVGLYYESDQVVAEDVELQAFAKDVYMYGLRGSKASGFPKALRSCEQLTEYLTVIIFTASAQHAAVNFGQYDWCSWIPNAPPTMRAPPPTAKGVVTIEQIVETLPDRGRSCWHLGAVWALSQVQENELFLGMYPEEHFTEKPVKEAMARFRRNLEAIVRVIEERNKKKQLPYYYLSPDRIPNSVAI
Experimental: 5-Lipoxygenase inhibiting activity of the compound of the present invention was measured referring to the method for measuring 5-lipoxygenase activity by K. Ochi et al. [Journal of Biological Chemistry (J. Biol. Chem.), 258, 5754(1983)].
Sterilized 2% solution of casein (pH 7) was injected intraperitoneally into Hartley guinea pigs in a volume of 5 ml/100 g body weight. Fifteen hours later, the guinea pigs were killed and peritoneal exudate cells thereof were collected. After the exudate cells were washed with 17 mM Tris--HCl buffer (pH 7.4) containing 0.74% ammonium to remove contaminating erythrocytes in the exudate cells suspension, the cells were washed with buffer A (130 mM NaCl, 1 mM EDTA, 25 mM sodium phosphate, pH 7.4). The washed cells were suspended in buffer B (50 mM sodium phosphate, 1 mM EDTA, 0.1% gelatin, pH 7.4) at 10^8 cells/ml, sonicated and centrifuged at 10,000×g for 20 minutes under the cold atmosphere. The obtained supernatant was further centrifuged at 105,000×g for 60 minutes under the cold atmosphere. The cytosol fraction was used as an enzyme solution.
The enzyme solution was preincubated with the […] in the presence of 1 mM CaCl2, 1 mM reduced gluthathione (GSH) and 2 mM ATP at 30° C. for 5 minutes in 0.2 ml of a reaction mixture and the mixture was further incubated at 30° C. for 5 minutes by adding 20 μM [1-^14 C] arachidonic acid (0.1 μCi) thereto. The test compounds were dissolved in ethanol to give the reaction mixture containing 2% ethanol as a final concentration. Only ethanol was added to the reaction mixture as a control group.
To the reaction mixture were added 2.5 ml of a mixture of chloroform and methanol (2/1 by volume) and 0.3 ml of 40 mM citric acid to stop the reaction. The mixture was vortexed and an organic solvent layer was evaporated to dryness under nitrogen gas. After dissolving the dried organic layer in a fixed amount of the mixture of chloroform and methanol (2/1 by volume), it was spotted on a silica gel plate (Kiesel gel 60F254, E. Merck) and products were separated using a developer (the organic solvent layer of ethyl acetate/water/2,2,4-trimethylpentane/acetic acid=11/10/5/2 by volume). After the radioactive position of the product was determined by means of a radioautography, an area equivalent to that of 5-hydroxyeicosatetraenoic acid (hereinafter referred to as "5-HETE") was scraped off, and then its radioactivity was measured with a liquid scintillation counter. With regarding the amount of the generated 5-HETE as the 5-lipoxygenase inhibiting activity, the inhibition rate (%) in comparison with the control group was calculated according to the following equation. [formula]

[2] = target: T2, epidermal growth factor receptor-tyrosine kinase complex (Homo sapiens, UniProt P00533); assay: Tyrosine kinase inhibiting activity (A-431 membrane preparation, EGF-stimulated); format: biochemical; details: read-out: Tyrosine kinase inhibition rate; for inhibition at 10 µM: 10 μM in the reaction mixture; for inhibition at 1 µM: 1 μM in the reaction mixture
T2 construct: The membrane preparation was employed in the following measurement without solubilization; endogenous in cells; host or cells: A-431 (ATCC CRL1555), membrane preparation, not solubilized
Experimental: Tyrosine kinase inhibiting activity of the compound of the present invention was measured referring to a method for measuring tyrosine kinase activity by G. Carpenter or by S. Cohen et al. [J. Biol. Chem., 254, 4884(1979); J. Biol. Chem., 257, 1528(1982)].
Cell line A-431 derived from human carcinoma (ATCC CRL1555) was cultured at 37° C. under the condition of 5% CO2 in Dulbecco's modified Eagle's medium (made by NISSUE PHARMACEUTICAL CO., LTD.) containing 10% by volume fetal bovine serum, 50 μg/ml of streptomycin, 50 IU/ml of penicillin G and 50 μg/ml of kanamycin. […] The membrane preparation was employed in the following measurement without solubilization.
A test compound dissolved in dimethylsulfoxide (hereinafter referred to as "DMSO") was added to a mixture of 20 mM of N-2-hydroxyethylpiperazine-N'-2-ethanesulfonic acid buffer (pH 7.4), 1 mM of MnCl2, 7.5 μg of bovine serium albumin and the membrane preparation (10 μg as protein). After incubation at 0° C. for 5 minutes, 100 ng of epidermal growth factor (hereinafter referred to as "EGF") was added thereto and the mixture was further incubated at 0° C. for 15 minutes. [γ-^32 P]ATP (3000 Ci/mmol, 0.1 μCi) was added thereto to make final volume of 70 μl. After incubation at 0° C. for 15 minutes, 50 μl of the reaction mixture was soaked into Whatman 3 MM filter paper (made by Whatman Ltd.) and immediately the reaction was stopped by an aqueous solution of 10% by weight trichloroacetic acid containing 10 mM sodium pyrophosphate. The filter paper was sufficiently washed with the same solution and then washed with ethanol, and dried. Radioactivity present in the filter paper was measured by liquid scintillation counter (A). Also, radioactivity was measured in case of the reaction without EGF (B), the reaction without the test compound (C), and the reaction without both EGF and the test compound (D) as a control.
Tyrosine kinase inhibition rate (%) was calculated by the following equation. [formula]

[3] = test system: passive cutaneous anaphylaxis (PCA) reaction; assay: Inhibitory activity against homologous PCA reaction in rats; format: in vivo, male Wistar rats; details: Rattus norvegicus, oral, read-out: Inhibition rate (PCA reaction); for inhibition in vivo at 100 mg/kg: 1 hour before antigen
Experimental: (1) Inhibitory activity against homologous PCA reaction in rats
Antiserum was prepared according to I. Mota [Immunology, 7, 681(1964)]and the PCA reaction was conducted according to Maruyama et al. [Folia Pharmacologica Japonica, 74, 179(1978}].
An ovalbumin solution dissolved in physiological saline (2 mg/ml) was injected intramuscularly into both thighs of male Wistar rats weighing 200 to 260 g in a volume of 0.5 ml/100 g body weight, and pertussis vaccine (Bordetella pertussis, 2×10^10 /ml/ Chiba Serum Institute) was intraperitoneally administered at 1 ml/rat. Twelve days after sensitization, blood was taken from posterior aorta under ether anesthesia and serum was separated and stored at -80° C.
In each group, 4 male Wistar rats weighing 180 to 210 g were used. Back of the rats was shaved and reach 0.05 ml of antiserum diluted 32 times with physiological saline was injected intradermally at four sites on the back. After 48 hours, 1 ml of a mixture of ovalbumin (2 mg/ml) as an antigen and Evans blue (10 mg/ml) in the volume ratio of 1 : 1, which was dissolved in physiological saline was injected intravenously into the tail. Thirty minutes later, the rats were bled to death under ether anesthesia and the back skin of the rats was removed. The blue-dyed area formed by pigment exudation was measured and an inhibition rate (%) was calculated as compared with control according to the following equation. [formula]
A test compound suspended in a 2.5 % aqueous solution of gum arabic containing 0.2 % Tween 80 was administered orally in a volume of 0.5 m:/100 g body weight 1 hour before the injection of antigen. To the control group, only the vehicle was administered. Tranilast which was a positive control compound was administered orally 30 minutes before the injection of antigen.

[4] = test system: Nycobacterium smegmatis ATCC 607; assay: Antibacterial activity (MIC) against acid-fast bacteria; format: cell-based; details: 37° C., 40 to 42 hours
Experimental: As for acid-fast bacteria, after cultured in glycerol broth medium, there was prepared a bacterial suspension for inoculation containing about 10^6 of the bacteria per 1 ml of the medium. On the other hand, there were prepared some glycerol Czapek agar plating media with adding the test compounds, and thereto the bacterial suspension for inoculation was streaked.

[5] = test system: antigen-induced airway constriction; assay: Inhibitory activity against antigen-induced airway constriction in actively sensitized guinea pigs; format: in vivo; details: Cavia porcellus, iv, 3 minutes before antigen inhalation, read-out: Inhibition rate (airway constriction)
Experimental: (3) Inhibitory activity against antigen-induced airway constriction in actively sensitized guinea pigs
That is, the sensitized guinea pigs (5 guinea pigs/group) were provided with artificial respiration by inserting a tracheal cannula under urethane anesthesia (1.5 g/kg body weight, intraperitoneal administration), and then, gallamine at 1 mg/kg body weight was injected intravenously to stop spontaneous respiration of the guinea pigs. Inhalation of 0.5% aqueous solution of ovalbumin was conducted using a nebulizer for 1 minute to increase antigen-induced airway constriction, at the same time, airway pressure was recorded through a transducer. Test compound was administered into jugular vein (i.v.) of the guinea pig 3 minutes before the antigen inhalation or administered orally (p.o.) 2 hours before the antigen inhalation. As a positive control compound, theophylline which was a drug for anti-asthma was used. The effect of the compound was estimated by calculating the maximum value of airway constriction (%) in comparison with the control group, according to the following equation. [formula]

T2 sequence (P00533 25-1210, one chain of several): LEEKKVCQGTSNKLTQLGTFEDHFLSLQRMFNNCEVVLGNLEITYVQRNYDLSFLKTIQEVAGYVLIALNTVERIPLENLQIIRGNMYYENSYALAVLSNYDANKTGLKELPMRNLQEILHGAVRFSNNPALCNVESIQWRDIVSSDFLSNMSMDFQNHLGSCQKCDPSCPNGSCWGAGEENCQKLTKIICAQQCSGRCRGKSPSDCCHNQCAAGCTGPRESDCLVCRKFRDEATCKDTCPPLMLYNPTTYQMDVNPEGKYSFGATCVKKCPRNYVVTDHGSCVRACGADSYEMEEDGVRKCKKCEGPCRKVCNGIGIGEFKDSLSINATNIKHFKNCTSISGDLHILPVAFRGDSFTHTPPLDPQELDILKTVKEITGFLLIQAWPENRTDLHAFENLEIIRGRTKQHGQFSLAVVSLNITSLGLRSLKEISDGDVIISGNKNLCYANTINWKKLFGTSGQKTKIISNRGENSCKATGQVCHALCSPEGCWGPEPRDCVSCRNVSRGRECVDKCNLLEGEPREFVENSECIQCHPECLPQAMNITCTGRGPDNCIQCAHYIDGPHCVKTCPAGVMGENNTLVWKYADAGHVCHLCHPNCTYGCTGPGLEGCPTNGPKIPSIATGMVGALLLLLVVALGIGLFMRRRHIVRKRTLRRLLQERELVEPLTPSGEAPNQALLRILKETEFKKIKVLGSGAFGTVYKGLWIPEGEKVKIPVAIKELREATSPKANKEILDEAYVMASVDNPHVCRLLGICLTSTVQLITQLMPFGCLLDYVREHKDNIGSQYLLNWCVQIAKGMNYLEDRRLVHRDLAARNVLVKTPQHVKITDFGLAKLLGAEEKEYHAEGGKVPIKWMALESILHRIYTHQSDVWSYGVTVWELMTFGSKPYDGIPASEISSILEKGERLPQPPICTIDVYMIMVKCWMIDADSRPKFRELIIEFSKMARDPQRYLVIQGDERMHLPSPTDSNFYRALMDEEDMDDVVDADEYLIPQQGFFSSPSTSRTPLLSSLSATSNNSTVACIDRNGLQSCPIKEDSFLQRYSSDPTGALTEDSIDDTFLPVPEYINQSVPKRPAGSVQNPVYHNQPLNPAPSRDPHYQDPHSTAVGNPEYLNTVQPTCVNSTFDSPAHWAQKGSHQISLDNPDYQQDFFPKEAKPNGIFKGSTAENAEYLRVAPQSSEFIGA

Structure (SMILES) | responders at 100 mg/kg [1] | inhibition at 10 µM (5-lipoxygenase) | inhibition at 10 µM [2] | inhibition in vivo at 100 mg/kg [3] | further results
CC(C)c1cc(C=C2SC(NCc3ccc(Cl)cc3)=NC2=O)cc(C(C)C)c1O [Compound 36] | 25% | 84% | 59% |  | 
COc1ccc(CNC2=NC(=O)C(=Cc3cc(C(C)C)c(O)c(C(C)C)c3)S2)cc1 [Compound 38] | 25% | 88% | 85% |  | 
N#CC(=Cc1cc(O)c(O)c(Cc2ccccc2)c1)C(N)=O [Compound 23] |  | 85% | 60% | 29% | 
CC(C)c1cc(C=C2SC(NCCc3ccccc3)=NC2=O)cc(C(C)C)c1O [Compound 34] |  |  |  | 48% | inhibition at 1 µM [2]: 63%; MIC [4]: ≤ 6 µg/mL
COc1ccc(/C=C/C(=O)Nc2ccccc2C(=O)O)cc1OC [tranilast, reference compound] | 0% |  |  |  | inhibition in vivo at 300 mg/kg ([3]; 300 mg/kg, 30 minutes before antigen, positive control): 40%
Cn1c(=O)c2[nH]cnc2n(C)c1=O [theophylline, reference compound] |  |  |  |  | responders at 30 mg/kg ([1]; 30 mg/kg): 50%; inhibition in vivo at 1 mg/kg ([5]; 1 mg/kg): 31%
CC(C)c1cc(C=C2SC(Nc3ccccc3)=NC2=O)cc(C(C)C)c1O [Compound 32] |  |  |  | 21% | inhibition at 1 µM [2]: 74%; MIC [4]: ≤ 6 µg/mL; inhibition in vivo at 2 mg/kg ([5]; 2 mg/kg): 23%
